{"source": "patent US10039779B2", "about": "“Combination formulation of two antiviral compounds” (priority 2013, dated 2018)", "key": {"[1]": {"assay": "Ledipasvir single-dose PK by concomitant food intake status", "type": "in vivo", "conditions": "for CL/F: Ledipasvir 30 mg single dose, N = 8, mean"}, "[2]": {"assay": "PK of Sofosbuvir/Ledipasvir tablets fasted or with meals", "conditions": "for AUC(0-inf) / AUC(0-t) / Cmax: plasma, po, plasma analyte, n = 29, mean (% CV); for AUC(0-inf): AUCinf; for AUC(0-t): AUClast"}, "HCV": {"test_system": "HCV", "assay": "Dose selection: antiviral response and Emax PK/PD modeling", "type": "in vivo, Hepatitis C virus", "conditions": "for breakthrough (BT) rate: in combination with other therapeutic agents", "experimental": "The sofosbuvir dose selected for the tablet formulation is 400 mg once daily. Support for the 400 mg sofosbuvir dose can be derived from Emax PK/PD modeling with early virological and human exposure data which also supports the selection of a 400 mg sofosbuvir dose over others tested.\nThe mean sofosbuvir major metabolite AUCtau for the 400 mg sofosbuvir dose is associated with approximately 77% of the maximal HCV RNA change from baseline achievable as determined by this model, a value which is on the cusp of the plateau of the exposure-response sigmoidal curve. […] Therefore, given that sofosbuvir exposure with 200 mg tablets appears dose-proportional with single doses up to 1200 mg, doses below 400 mg are expected to yield considerable reductions in the magnitude of HCV RNA change from baseline.\nThe sofosbuvir dose of 400 mg once daily was associated with higher SVR rates in genotype 1 HCV infected patients as compared to the 200 mg once daily dose when given in conjunction with additional HCV therapeutics for 24 weeks. Safety and tolerability appeared similar across both dose levels. In addition, when sofosbuvir 400 mg once daily plus other HCV therapeutics were given to genotype 2 or 3 HCV infected patients, 100% SVR24 was observed.\nThe maximum median HCV RNA log 10 reduction was 3 or greater for all cohorts dosed with ≥3 mg of ledipasvir. […] Therefore, 30 mg and 90 mg of ledipasvir were selected as the dose for the formulations described herein.\nTherefore, the 90 mg dose of ledipasvir may confer a greater antiviral coverage that prevents viral breakthrough."}, "[3]": {"assay": "Pharmacokinetics of sofosbuvir and ledipasvir alone or in combination", "type": "in vivo", "design": "AUC(0-inf): concentration or dose not given beside the values", "conditions": "for AUC(0-inf): plasma"}, "[4]": {"assay": "Compatibility/stability of sofosbuvir and ledipasvir:copovidone solid dispersion blend", "type": "physicochemical", "conditions": "for Strength / Total Impurity Content: blend pellets, open glass vials", "experimental": "The compatibility of sofosbuvir anhydrous crystalline drug substance was evaluated with the ledipasvir:copovidone solid dispersion. A blend of the sofosbuvir and ledipasvir:copovidone (1:1) solid dispersion was prepared at a ratio representative of the final 400 mg sofosbuvir/90 mg ledipasvir tablets. […]"}, "[5]": {"assay": "pH-solubility profile and solubility in simulated intestinal media", "type": "physicochemical"}, "[6]": {"assay": "pH-solubility profile and solubility in simulated intestinal media", "type": "physicochemical", "experimental": "Excess solid ledipasvir was added to a range of pH-adjusted aqueous solutions (titrated with HCl or NaOH) and stirred for 48 hours at room temperature. The suspensions were then filtered through regenerated cellulose syringe filters. The pH value of the supernatant was measured, and the supernatant was diluted as appropriate with 50:50 H2O+0.1% TFA:ACN and assayed for ledipasvir content by the HPLC-UV method.\nSolubility of ledipasvir amorphous free base was assessed in three types of simulated intestinal fluids at pH 6.5 or pH 5.0; and simulated intestinal bile salt and lecithin mixture (SIBLM), pH 6.4. Excess solid ledipasvir was added to the respective SIFs and stirred for 48 hours at room temperature. The resulting suspensions were then filtered through regenerated cellulose syringe filters. The supernatant was diluted as appropriate with 50:50 H2O+0.1% TFA:ACN and assayed for ledipasvir content by the HPLC-UV method.", "remark": "listed apart in the source"}, "[7]": {"conditions": "Sofosbuvir/Ledipasvir Tablet, Fasted"}, "[8]": {"conditions": "Sofosbuvir/Ledipasvir Tablet, High-Calorie/High-Fat Meal"}, "[9]": {"conditions": "Sofosbuvir/Ledipasvir Tablet, Moderate-Fat Meal"}, "[10]": {"conditions": "Sofosbuvir + Ledipasvir vs single agent alone"}, "[11]": {"conditions": "po, plasma analyte, Ledipasvir alone, n = 17, mean (% CV)"}, "[12]": {"conditions": "nonlinear least-square regression fit of pH-solubility profile"}}, "data": [{"smiles": "COC(=O)N[C@H](C(=O)N1CC2(CC2)C[C@H]1c1ncc(-c2ccc3c(c2)C(F)(F)c2cc(-c4ccc5nc([C@@H]6[C@H]7CC[C@H](C7)N6C(=O)[C@@H](NC(=O)OC)C(C)C)[nH]c5c4)ccc2-3)[nH]1)C(C)C", "note": "[Ledipasvir, (1-{3-[6-(9,9-difluoro-7-{2-[5-(2-methoxycarbonylamino-3-methyl-butyryl)-5-aza-spiro[2.4]hept-6-yl]-3H-imidazol-4-yl}-9H-fluoren-2-yl)-1H-benzoimidazol-2-yl]-2-aza-bicyclo[2.2.1]heptane-2-carbonyl}-2-methyl-propyl)-carbamic acid methyl ester]", "values": [{"measurement": "AUCinf GLSM Ratio (Fed/Fasted)", "setting": "[1]; Ledipasvir 30 mg", "value": 55.55, "unit": "%"}, {"measurement": "AUClast GLSM Ratio (Fed/Fasted)", "setting": "[1]; Ledipasvir 30 mg", "value": 56.71, "unit": "%"}, {"measurement": "Cmax GLSM Ratio (Fed/Fasted)", "setting": "[1]; Ledipasvir 30 mg", "value": 54.90, "unit": "%"}, {"measurement": "CL/F", "setting": "[1]; fasted", "value": "17,034.5 mL/h"}, {"measurement": "CL/F", "setting": "[1]; fed (high-fat meal)", "value": "26,917.9 mL/h"}, {"measurement": "decrease each in mean Cmax, AUClast, and AUCinf", "setting": "[1]; high-fat meal vs fasted, 30 mg", "value": "approximately 45%"}, {"measurement": "decrease in exposure with a high-fat meal relative to fasted state", "setting": "[1]; ledipasvir alone in a conventional formulation", "value": "roughly 2 fold"}, {"measurement": "% GMR (90% CI) [Moderate-Fat/Fasted] of AUCinf", "setting": "[2]; Sofosbuvir/Ledipasvir Tablet", "value": "115 (99.4, 134) %"}, {"measurement": "% GMR (90% CI) [Moderate-Fat/Fasted] of AUClast", "setting": "[2]; Sofosbuvir/Ledipasvir Tablet", "value": "114 (98.0, 133) %"}, {"measurement": "% GMR (90% CI) [Moderate-Fat/Fasted] of Cmax", "setting": "[2]; Sofosbuvir/Ledipasvir Tablet", "value": "109 (93.5, 126) %"}, {"measurement": "GMR (90% CI) [High-Fat/Fasted] of AUCinf", "setting": "[2]; Sofosbuvir/Ledipasvir Tablet", "value": "103 (88.5, 119) %"}, {"measurement": "GMR (90% CI) [High-Fat/Fasted] of AUClast", "setting": "[2]; Sofosbuvir/Ledipasvir Tablet", "value": "104 (88.8, 121) %"}, {"measurement": "GMR (90% CI) [High-Fat/Fasted] of Cmax", "setting": "[2]; Sofosbuvir/Ledipasvir Tablet", "value": "88.2 (75.8, 103) %"}, {"measurement": "AUC(0-inf)", "setting": "[2]; [7]", "value": 10600, "unit": "ng·h/mL"}, {"measurement": "AUC(0-inf)", "setting": "[2]; [8]", "value": 9220, "unit": "ng·h/mL"}, {"measurement": "AUC(0-inf)", "setting": "[2]; [9]", "value": 10600, "unit": "ng·h/mL"}, {"measurement": "AUC(0-t)", "setting": "[2]; [7]", "value": 8600, "unit": "ng·h/mL"}, {"measurement": "AUC(0-t)", "setting": "[2]; [8]", "value": 7550, "unit": "ng·h/mL"}, {"measurement": "AUC(0-t)", "setting": "[2]; [9]", "value": 8650, "unit": "ng·h/mL"}, {"measurement": "Cmax", "setting": "[2]; [7]", "value": 324, "unit": "ng/mL"}, {"measurement": "Cmax", "setting": "[2]; [8]", "value": 255, "unit": "ng/mL"}, {"measurement": "Cmax", "setting": "[2]; [9]", "value": 319, "unit": "ng/mL"}, {"measurement": "effect of food on pharmacokinetics", "setting": "[2]; sofosbuvir/ledipasvir composition, fed vs fasted", "value": "does not appear to be altered by food"}, {"measurement": "share of maximal antiviral response (Emax PK/PD model)", "setting": "HCV; 30 mg dose, genotype 1a HCV infected patients", "value": "> 95", "unit": "%"}, {"measurement": "breakthrough (BT) rate", "setting": "HCV; 30 mg, 11/33", "value": 33, "unit": "%"}, {"measurement": "breakthrough (BT) rate", "setting": "HCV; 90 mg, 9/74", "value": 12, "unit": "%"}, {"measurement": "% GMR (90% CI) of AUCinf", "setting": "[3]; [10]", "value": "95.7 (92.1, 99.5) %"}, {"measurement": "% GMR (90% CI) of AUClast", "setting": "[3]; [10]", "value": "96.5 (89.9, 104) %"}, {"measurement": "% GMR (90% CI) of Cmax", "setting": "[3]; [10]", "value": "95.5 (91.9, 99.1) %"}, {"measurement": "AUC(0-inf)", "setting": "[3]; [11]", "value": 11900, "unit": "ng·h/mL"}, {"measurement": "AUC(0-inf)", "setting": "[3]; po, plasma analyte, Sofosbuvir + Ledipasvir, n = 17, mean (% CV)", "value": 11400, "unit": "ng·h/mL"}, {"measurement": "Cmax", "setting": "[3]; [11]", "value": 375, "unit": "ng/mL"}, {"measurement": "degradation in blend with the other active", "setting": "[4]; 40° C./75% RH and 60° C./ambient humidity, two and four weeks", "value": "no degradation was observed"}, {"measurement": "Strength", "setting": "[4]; 45° C./75% RH, 0 weeks", "value": 98.8, "unit": "%"}, {"measurement": "Total Impurity Content", "setting": "[4]; 45° C./75% RH, 0 weeks", "value": 0.0, "unit": "%"}, {"measurement": "Strength", "setting": "[4]; 45° C./75% RH, 2 weeks", "value": 96.9, "unit": "%"}, {"measurement": "Total Impurity Content", "setting": "[4]; 45° C./75% RH, 2 weeks", "value": 0.0, "unit": "%"}, {"measurement": "Strength", "setting": "[4]; 45° C./75% RH, 4 weeks", "value": 97.1, "unit": "%"}, {"measurement": "Total Impurity Content", "setting": "[4]; 45° C./75% RH, 4 weeks", "value": 0.0, "unit": "%"}, {"measurement": "Strength", "setting": "[4]; 60° C., 0 weeks", "value": 98.8, "unit": "%"}, {"measurement": "Total Impurity Content", "setting": "[4]; 60° C., 0 weeks", "value": 0.0, "unit": "%"}, {"measurement": "Strength", "setting": "[4]; 60° C., 1 week", "value": 99.2, "unit": "%"}, {"measurement": "Total Impurity Content", "setting": "[4]; 60° C., 1 week", "value": 0.0, "unit": "%"}, {"measurement": "Strength", "setting": "[4]; 60° C., 2 weeks", "value": 99.6, "unit": "%"}, {"measurement": "Total Impurity Content", "setting": "[4]; 60° C., 2 weeks", "value": 0.0, "unit": "%"}, {"measurement": "Strength", "setting": "[4]; 60° C., 4 weeks", "value": 98.9, "unit": "%"}, {"measurement": "Total Impurity Content", "setting": "[4]; 60° C., 4 weeks", "value": 0.0, "unit": "%"}, {"measurement": "permeability", "setting": "[5]", "value": "high permeability"}, {"measurement": "BCS classification", "setting": "[6]", "value": "BCS Class 2"}, {"measurement": "pKa1", "setting": "[6]; [12]", "value": 5.0}, {"measurement": "pKa2", "setting": "[6]; [12]", "value": 4.0}]}]}
